Where two headings read alike, the source gives them in different places.
Tests used:
BTK = target: T1, BTK (Homo sapiens, UniProt Q06187); experiment: BTK kinase electrophoretic mobility shift assay (MSA); type: biochemical; conditions: 50 μM ATP, 0.5 nM BTK enzyme (Nanosyn-293HEK, WT), 3 hours at 25° C.; all examples except 50, 51, 62 and 63; read-out: BTK IC50
T1 construct: purchased Nanosyn, Santa Clara, Calif; host or cells: 293HEK

[1] = Chemical inhibition in human hepatocytes (intrinsic clearance with and without CYP inhibitors); type: in vitro ADME; conditions: human, human hepatocyte suspension
Experimental: (§1) The contribution of CYPs to the metabolism of Compound 6 was evaluated in human hepatocyte suspension (about 500,000 cells/mL) (hepatocytes from BioIVT, Inc.) treated with or without azamulin (CYP3A4 mechanism-based inhibitor) or 1-aminobenzotriazole (ABT)/tienilic acid (a pan-CYP inhibitor regimen) for 30 minutes. The hepatocyte suspension with inhibitors was preincubated with 2× azamulin or 1-ABT/tienilic acid in Williams' media E and then added to 2× Compound 6 in media to give a final concentrations of 2.5 μM azamulin or 0.5 mM 1-ABT/1.5 μM tienilic acid and 0.5 μM Compound 6, respectively.
(§2) Final incubation volume was 25 μL. Samples were incubated in 384-well plates at 37° C. with 5% CO2 and gentle shaking. At each time point (0, 15, 30, 60, 120, and 240 minutes), samples in the incubation plates were quenched with acetonitrile:MeOH (95:5, v:v) with carbutamide as internal standard (quench ration 3:1). The samples were centrifuged, and the supernatant was analyzed using LC-MS/MS.
(§3) Quantitation of the substrate depletion in recombinant CYPs and FMO3 phenotyping, chemical inhibition in hepatocytes, and enzyme kinetics assays were analyzed by monitoring substrate depletion using LC-MS/MS.
(§4) The intrinsic clearance of Compound 6 in rCYP and hepatocytes was determined by integrating the parent peak on the chromatograms, and the extent of substrate depletion measured by comparing parent peak area loss over time. The elimination rate constant (k, transformation of % parent remaining versus incubation time: y=a*e^−(kt). Where y is the % parent remaining, t (min) is the time point within the incubation, and a is the % parent remaining at time 0 minute. From this, intrinsic clearance in rCYP (CLint, CYP, expressed in units of μL/min/pmol CYP) and in hepatocytes (CLint, hep, expressed in units of μL/min/million cells were derived using the equations below:
(§5) Clint,hep=k*1000/Cell Concentration (million cells/mL)
(§6) The fraction of metabolism inhibited by the chemical treatment in human hepatocytes was calculated using the equation:
(§7) fm,CYP=[Clint,hep(no inhibitor)−Clint,hep(PanCYP or azamulin])/[Clint, hep(no inhibitor)]

[2] = test system: human hepatocyte suspension; experiment: as above; type: in vitro ADME
Experimental: as §1, §2, §3, §4, §5, §6, §7

T1 sequence (Q06187 whole entry): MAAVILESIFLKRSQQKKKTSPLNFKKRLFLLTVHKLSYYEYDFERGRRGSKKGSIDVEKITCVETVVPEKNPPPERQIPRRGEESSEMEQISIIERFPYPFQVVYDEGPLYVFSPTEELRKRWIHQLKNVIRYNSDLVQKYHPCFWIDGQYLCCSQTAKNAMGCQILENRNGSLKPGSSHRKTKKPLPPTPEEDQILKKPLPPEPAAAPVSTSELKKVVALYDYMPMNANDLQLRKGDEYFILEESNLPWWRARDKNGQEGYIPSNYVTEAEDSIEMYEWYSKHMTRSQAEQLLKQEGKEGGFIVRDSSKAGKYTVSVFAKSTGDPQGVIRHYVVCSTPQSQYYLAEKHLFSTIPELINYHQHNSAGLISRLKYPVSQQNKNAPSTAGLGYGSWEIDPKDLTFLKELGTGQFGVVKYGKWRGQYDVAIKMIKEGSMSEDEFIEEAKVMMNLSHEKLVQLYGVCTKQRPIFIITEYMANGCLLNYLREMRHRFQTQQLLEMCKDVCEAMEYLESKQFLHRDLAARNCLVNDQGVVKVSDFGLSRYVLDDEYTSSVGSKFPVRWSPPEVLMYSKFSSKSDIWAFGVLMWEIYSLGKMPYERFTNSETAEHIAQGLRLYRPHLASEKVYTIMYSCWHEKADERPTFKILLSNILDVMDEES

**Q.** With C=CC(=O)N1CCN([C@@H]2CCNc3c2nn(-c2ccc(Oc4ccccc4)cc2)c3C(N)=O)CC1 [Example 6, (7R)-2-(4-phenoxyphenyl)-7-[4-(prop-2-enoyl)piperazin-1-yl]-4,5,6,7-tetrahydro-2H-pyrazolo[4,3-b]pyridine-3-carboxamide] as the molecule, how does the IC50 (BTK) read?
**A.** 1.1 nM

**Q.** And the hepatocyte CLint at 0.5 μM ([1]; 0.5 μM Compound 6, 0.5 mM 1-ABT/1.5 μM tienilic acid, read-out: CLint, PAN CYP)?
**A.** 8.23 µL/min/1e6 cells

**Q.** And the hepatocyte CLint at 0.5 μM ([1]; 0.5 μM Compound 6, no inhibitor, read-out: CLint, no inhibitor)?
**A.** 13.3 µL/min/1e6 cells

**Q.** And the hepatocyte CLint at 0.5 μM ([1]; with 2.5 μM azamulin (CYP3A4 mechanism-based inhibitor), 0.5 μM Compound 6, 2.5 μM azamulin (CYP3A4 inhibitor), read-out: CLint, Azamulin)?
**A.** 9.15 µL/min/1e6 cells

**Q.** And the “% Total CYP Contribution In Vitro” value ([2]; calculated from the PAN CYP inhibitor regimen of 1-ABT and tienilic acid, human hepatocyte suspensions)?
**A.** 38.3%

**Q.** What about the “CYP contribution to the hepatic metabolism” value ([2]; following incubation with a pan-CYP inhibitor cocktail in human hepatocytes) of the same molecule?
**A.** approximately 30%

**Q.** And the “% Inhibition by azamulin” value ([2]; fraction of clearance in human hepatocytes inhibited by azamulin)?
**A.** 31.4%

**Q.** What about the “non-CYP hepatic enzymes contribution to the remaining clearance” value ([2]; human hepatocytes) of the same molecule?
**A.** about 70%
